Data on eight compounds can be found in US7169591B1, “Preparation of enantio-specific epoxides” (priority 1999, dated 2007).

One test addresses T1, alkane hydroxylase (Ectopseudomonas oleovorans, UniProt P12691).
T1 sequence (P12691 1-401): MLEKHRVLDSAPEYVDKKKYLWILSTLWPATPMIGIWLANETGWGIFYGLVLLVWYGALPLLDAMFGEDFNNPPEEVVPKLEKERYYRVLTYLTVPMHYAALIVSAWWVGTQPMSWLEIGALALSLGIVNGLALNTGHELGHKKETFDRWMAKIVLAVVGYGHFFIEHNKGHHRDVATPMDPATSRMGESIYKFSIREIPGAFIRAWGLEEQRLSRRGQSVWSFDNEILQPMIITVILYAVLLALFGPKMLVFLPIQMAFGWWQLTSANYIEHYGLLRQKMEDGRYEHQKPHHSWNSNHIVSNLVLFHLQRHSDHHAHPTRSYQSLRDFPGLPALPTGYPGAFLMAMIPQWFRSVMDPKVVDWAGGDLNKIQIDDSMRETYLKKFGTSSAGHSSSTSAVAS
The note with it: cited from earlier work.

The next test deals with T2, alkene monooxygenase (Xanthobacter versatilis, UniProt O87082).
T2 sequence (O87082 1-497): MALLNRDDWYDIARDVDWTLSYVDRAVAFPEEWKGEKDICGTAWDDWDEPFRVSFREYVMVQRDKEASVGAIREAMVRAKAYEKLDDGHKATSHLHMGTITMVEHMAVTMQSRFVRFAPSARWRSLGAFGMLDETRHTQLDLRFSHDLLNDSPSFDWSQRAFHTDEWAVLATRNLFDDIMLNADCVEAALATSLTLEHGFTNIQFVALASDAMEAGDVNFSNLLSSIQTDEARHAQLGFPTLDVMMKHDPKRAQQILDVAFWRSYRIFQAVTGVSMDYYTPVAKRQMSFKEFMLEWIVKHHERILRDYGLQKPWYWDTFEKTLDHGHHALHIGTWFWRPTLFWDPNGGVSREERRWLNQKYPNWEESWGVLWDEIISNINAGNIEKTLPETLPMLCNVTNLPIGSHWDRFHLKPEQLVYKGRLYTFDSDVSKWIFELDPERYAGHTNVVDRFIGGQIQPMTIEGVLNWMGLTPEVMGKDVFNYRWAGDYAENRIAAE
The note with it: cited from earlier work.

The test system of test [1] is Burkholderia sp. strain ENVBF1. Kind of test: Enantiomeric ratio of monoepoxides (chiral GC), strain ENVBF1. It counts as cell-based. On the procedure:
(§1) To determine the ratio of R and S isomers of the epoxides formed from the oxidation of the alkenes, samples were analyzed for the presence of the epoxides and alkenes by gas chromatography as described above. When the epoxide concentration neared its maximum, or when the 80–90% of the substrate was degraded, the enantiomeric ratio of epoxides produced was determined by injecting a sample of the headspace gas onto a GC equipped with a chiral separation column (RT-BDEXSE; Restek, Inc., Bellefonte, Pa.) and a flame ionization detector. The column was maintained at 50° C.

Test [2] has as its system Pseudomonas sp. strain ENVPC5. Put plainly: Enantiomeric ratio of monoepoxides (chiral GC), strain ENVPC5. The note with it: PC5. It counts as cell-based. On the procedure: as §1
In test [3] the test system is Pseudomonas mendocina KR1 (T4MO). Kind of test: Enantiomeric ratio of monoepoxides (chiral GC), strain KR1. It counts as cell-based. As for the experimental part:
as §1

The test system of test [4] is Pseudomonas pickettii PKO1 (T3MO). Kind of test: Enantiomeric ratio of monoepoxides (chiral GC), strain PKO1. It counts as cell-based. The note with it: KO1 (PKO1). As for the experimental part:
as §1

Test [5] deals with Burkholderia cepacia G4 (T2MO). Kind of test: Enantiomeric ratio of monoepoxides (chiral GC), strain G4. It counts as cell-based. As for the experimental part:
as §1

In another test the test system is Burkholderia cepacia G4. Kind of test: Alkene degradation assay, whole cells of Burkholderia cepacia G4 (T2MO). It counts as cell-based. The note with it: G4; following 30 minutes incubation. The source says:
(§2) Pseudomonas mendocina KR1 (Yen et al., J. Bacteriol., 173:5315–5327 (1991)), the T4MO mutant of KR1 Pseudomonas mendocina ENVpmx1 (McClay et al., The 97th Annual Meeting of ASM, Abstract K36, page 348 (1997)), Pseudomonas pickettii PKO1 (Byrne et al., Gene, 154:65–70 (1995)), Burkholderia cepacia G4 (Shields et al., Appl. Environ. Microbiol., 55:1624–1629 (1989)), Burkholderia sp. strain ENVBF1 (McClay et al., Appl. Environ. Microbiol., 62:2716–2722 (1996)), and Pseudomonas sp. strain ENVPC5 (McClay et al., 1996, supra) were cultured overnight at 30° C. in shake flasks containing basal salts medium (BSM; 10) supplemented with 0.4% sodium glutamate. Toluene was included in the vapor phase when induction of the toluene oxygenases was desired. Prior to substrate degradation assays the cultures were harvested by centrifugation and resuspended in BSM to an optical density at 550 nm (OD550) of 2, unless otherwise indicated. A standard curve of optical density vs. protein concentration for each strain was used to calculate the amount of protein per ml of the resuspended cultures.
(§3) To determine the range of alkenes that could be degraded by the toluene monooxygenase and the degradation kinetics of the toluene monooxygenases, 5-ml aliquots of the resuspended cultures were dispensed to 25-ml serum vials and crimp sealed with Teflon™ faced septa. Gaseous alkene substrates were added as pure compounds by using a gas-tight syringe, and other alkene substrates were added from stock solutions (20% in dimethylformamide). The amount of individual alkene substrates added were as follows: 1-butene, 2-butene, and 1,3-butadiene, 2.2 μM; epoxy butane, 1,3-butadiene monoxide, and epichlorohydrine, 8 μM; 1- and 2-pentene, 9 μM; hexene, 4 μM; octadiene, 4.5 μM; 2-chloropropene, 11 μM; and, 2,3-dichloropropene, 12 μM unless otherwise indicated. The serum vials were then placed horizontally on a rotary shaker operating at 100 rpm. During incubation the temperature was maintained between 20–22° C. for the Pseudomonads and at 37° C. for E. coli. The serum vials were periodically removed from the shaker and a 10–25 μl portion of the headspace gas was withdrawn through the septa and injected onto a gas chromatograph (GC) equipped with a 30 m Vocol column (Supelco Inc. Bellefonte, Pa.) maintained at 160° C., and a flame ionization detector. This allowed the monitoring of both the alkene compounds as well as the epoxide products. The same protocol was used to detect the formation of 1,2-butanediol and butadiene diepoxide, except that 1 μl of the culture media was injected onto the column rather than the headspace gas.

The subject of a further test is T4MO. Kind of test: Induction of T4MO by alkenes and toluene (FIG. 14). It counts as cell-based. The note with it: at 120 minutes. As for the experimental part: The data points are the average of duplicate samples, with the range shown as error bars. The relative light units registered by the 2-pentene sample at 120 minutes was approximately 10^5.
Test [6] relates to Pseudomonas mendocina ENVpmx1. Kind of test: Alkene degradation assay, T4MO deficient strain Pseudomonas mendocina ENVpmx1. It counts as cell-based.
Text: as §2, §3

Another test relates to wild type organisms. Put plainly: Alkene oxidation and epoxide detection (GC, PNBP), wild type organisms. The note with it: all the wild type strains. It counts as cell-based. On the procedure:
as §3
The only epoxides relevant to this study that were commercially available were 1,3-butadiene mono-, and diepoxide. These were used in GC analyses to determine retention times and to quantitate the conversion of 1,3-butadiene to the corresponding epoxides. To verify that the observed peaks were epoxides, a modification of the method of van Hylckama et al. (van Hylckama et al., Appl. Environ. Microbiol., 62:3304–3312 (1996)) was used, whereby epoxides were conjugated with PNBP to form intensely colored adducts of the epoxides. Serum vials were prepared as before, except that prior to sealing the vials, Durham tubes were placed inside the vials, with the opening of the Durham tube extending out of the liquid. The substrate was then added and the vials were incubated with moderate shaking at a 45° angle to prevent the culture liquid from entering the Durham tube. The transformation of the alkenes was monitored by GC analysis. […] The vials were then allowed to incubate for 8 hours before they were opened and the epoxide containing PNBP withdrawn. The total volume of PNBP solution was combined with an equal volume of acetone-triethylamine (50:50) and mixed rapidly. Epoxide/PNBP adducts were detected by spectra analysis (400–700 nm).

Test [7] deals with Burkholderia sp. strain ENVBF1. Kind of test: Alkene degradation assay, whole cells of Burkholderia sp. strain ENVBF1 (T4MO). It counts as cell-based. The note with it: ENVBF1; following 30 minutes incubation.
Text: as §2, §3

Test [8] has as its system Pseudomonas mendocina KR1. Kind of test: Alkene degradation assay, whole cells of Pseudomonas mendocina KR1 (T4MO). It counts as cell-based.
Text: as §2, §3

Test [9] has as its system E. coli (pRS202) expressing T4MO. Put plainly: Alkene degradation assay, E. coli (pRS202) expressing T4MO. It counts as cell-based, Escherichia coli DH10B. As for the experimental part: Escherichia coli DH10B containing the plasmid pRS202 (Pikus et al., Biochemistry, 35:9106–9119 (1996); Pikus et al., Biochemistry, 36:9283–9289 (1997)) was prepared in a similar manner except it was grown at 37° C. in LB media, and was resuspended to an OD550 of 4 in LB media with 0.3–1 mM IPTG to induce expression of T4MO.
as §3

Test [10] relates to Pseudomonas sp. strain ENVPC5. Kind of test: Alkene degradation assay, whole cells of Pseudomonas sp. strain ENVPC5 (T4MO). It counts as cell-based. The note with it: following 30 minutes incubation.
Text: as §2, §3

In test [11] the target is soluble methane monooxygenase (MMO) (Methylosinus trichosporium, UniProt P27353). The note with it: cited from earlier work.
Another test deals with T3, styrene monooxygenase (Pseudomonas sp, UniProt O50214).
T3 sequence (O50214 1-415): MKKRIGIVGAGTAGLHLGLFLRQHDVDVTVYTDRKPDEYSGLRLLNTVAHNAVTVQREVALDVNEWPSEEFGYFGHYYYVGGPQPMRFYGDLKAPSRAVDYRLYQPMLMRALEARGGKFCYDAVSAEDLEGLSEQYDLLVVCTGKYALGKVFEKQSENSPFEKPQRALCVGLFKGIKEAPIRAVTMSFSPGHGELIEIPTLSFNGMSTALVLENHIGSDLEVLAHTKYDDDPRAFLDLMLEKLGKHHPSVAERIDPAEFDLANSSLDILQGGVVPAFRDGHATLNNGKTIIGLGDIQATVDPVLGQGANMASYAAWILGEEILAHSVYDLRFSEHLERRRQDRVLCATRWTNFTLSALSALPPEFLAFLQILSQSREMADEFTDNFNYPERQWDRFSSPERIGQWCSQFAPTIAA
The note with it: cited from earlier work.

Where “and” joins values, the source holds several entries; their conditions need not be identical. Identical values can stand only once.

Chain of soluble methane monooxygenase (MMO) (P27353 whole entry): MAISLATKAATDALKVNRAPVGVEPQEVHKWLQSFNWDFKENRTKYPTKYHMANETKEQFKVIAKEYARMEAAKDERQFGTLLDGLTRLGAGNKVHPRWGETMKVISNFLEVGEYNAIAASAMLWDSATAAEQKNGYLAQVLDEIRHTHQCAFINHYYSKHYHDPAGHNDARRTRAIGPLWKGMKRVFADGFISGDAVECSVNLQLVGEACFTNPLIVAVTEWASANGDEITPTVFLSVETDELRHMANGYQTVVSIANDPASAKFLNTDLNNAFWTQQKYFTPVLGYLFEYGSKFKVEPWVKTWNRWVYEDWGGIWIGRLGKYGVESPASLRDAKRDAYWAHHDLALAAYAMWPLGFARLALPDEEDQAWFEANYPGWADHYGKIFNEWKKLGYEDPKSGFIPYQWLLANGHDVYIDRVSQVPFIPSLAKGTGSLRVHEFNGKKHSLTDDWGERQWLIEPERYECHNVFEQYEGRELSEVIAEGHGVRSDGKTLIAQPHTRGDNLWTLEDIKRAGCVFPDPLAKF
Chain of soluble methane monooxygenase (MMO) (P27354 whole entry partner): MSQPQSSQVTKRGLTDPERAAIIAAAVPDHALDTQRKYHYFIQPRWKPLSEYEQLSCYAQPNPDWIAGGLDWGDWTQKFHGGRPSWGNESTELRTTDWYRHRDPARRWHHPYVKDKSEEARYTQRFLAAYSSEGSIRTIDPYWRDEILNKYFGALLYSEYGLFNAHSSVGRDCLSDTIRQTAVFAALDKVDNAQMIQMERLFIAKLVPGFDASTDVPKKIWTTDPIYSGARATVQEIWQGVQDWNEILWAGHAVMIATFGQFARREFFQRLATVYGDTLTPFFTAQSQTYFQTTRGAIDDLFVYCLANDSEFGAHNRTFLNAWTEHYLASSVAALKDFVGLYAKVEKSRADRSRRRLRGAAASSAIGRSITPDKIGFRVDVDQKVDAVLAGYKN
Chain of soluble methane monooxygenase (MMO) (P27355 whole entry partner): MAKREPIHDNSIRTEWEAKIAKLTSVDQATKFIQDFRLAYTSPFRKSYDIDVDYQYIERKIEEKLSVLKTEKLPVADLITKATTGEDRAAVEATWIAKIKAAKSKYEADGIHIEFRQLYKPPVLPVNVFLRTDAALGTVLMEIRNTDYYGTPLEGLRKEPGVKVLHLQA
Chain of soluble methane monooxygenase (MMO) (P27356 whole entry partner): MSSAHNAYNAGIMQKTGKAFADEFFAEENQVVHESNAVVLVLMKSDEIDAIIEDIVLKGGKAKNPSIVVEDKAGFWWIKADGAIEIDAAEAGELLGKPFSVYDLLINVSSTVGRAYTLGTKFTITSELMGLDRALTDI

With `C=CCCCCC=C` [1,7-octadiene], the “enantiomeric purity of the (R) epoxide formed” value on alkane hydroxylase is given as 98%.
`C=CCC` [1-butene]: the R isomer formed at alkene monooxygenase is 94%. The “monoepoxide formed, R enantiomer” value was 9.8% in [1]; 11% and 11.3% in test [2]; 0% in [3]; 8.3% in [4]; 6.5% in [5]. Besides, the “monoepoxide formed, S enantiomer” value is 90.2% in test [1]; 89% and 88.7% in [2]; 92.7% in test [4]; 93.5% in [5].
As to `CC=CCC` [2-pentene], the “Specific activity of toluene monooxygenase, substrate degraded” value with Burkholderia cepacia G4 was 0.16 μM substrate degraded/minute/mg protein; in [7], 0.14 μM substrate degraded/minute/mg protein; in test [8] (following 30 minutes incubation), 0.33 μM substrate degraded/minute/mg protein; in [10], 0.18 μM substrate degraded/minute/mg protein. Further, the “induction of T4MO, relative light units” value with T4MO is recorded as “approximately 10^5 relative light units”. In test [6], the “degradation compared with the wild type strains” value was “more rapidly and to a greater extent than the wild type strains”. In addition, the “degradation” value in the test with wild type organisms is reported as “efficiently degraded”. Moreover, the initial oxidation rate in [8] amounted to 0.33 mM/min/mg protein. Also, the “degradation by the clone of T4MO” value in [9] was “degraded”.
For `C=CCCl` [3-chloropropene], the “(S) epoxide formed” value on alkene monooxygenase is listed as 80%.
In the case of `C=CC(C)C` [3-methyl-butene], in [11], the “oxidation by MMO” value is “unable to oxidize”.
Turning to `C=CCCCCC1CO1` (stereo not shown) [7,8-epoxy-1-octene], the “enantiomeric purity of the (R) epoxide formed” value on alkane hydroxylase is reported as 83%.
Take `C1=CCCCC1` [cyclohexene]: the “oxidation by MMO” value in [11] is on record as “unable to oxidize”.
For `C=Cc1ccccc1` [styrene], at styrene monooxygenase, the “enantiomer excess of (S)-styrene oxide formed” value is recorded as greater than 99%.
